Assay results published in ChEMBL document CHEMBL5579825, “Exploration of 1-(indolin-1-yl)-2-(thiazol-2-yl)ethan-1-one derivatives as novel anti-HBV agent with potential TLR7-agonistic effect” (Eur J Med Chem, 2024).
pIC50, pKd: −log10 of the molar value. Active and inactive are the calls of the source. No cut-off for these calls is given here.

What was measured:
Hepatitis B virus [1] = experiment: Antiviral activity against HBV infected in human HepG2.2.15 cells assessed as inhibition of viral DNA replication at 4 uM pre-transfected cells with viral genome followed by compound treatment for 6 days with replacement of medium containing compound on every 2 days by RT-PCR analysis relative to control; format: functional; details: HepG2.2.15, 144 h, time 6 day
Hepatitis B virus [2] = experiment: Antiviral activity against HBV infected in human HepG2.2.15 cells assessed as inhibition of viral DNA replication pre-transfected cells with viral genome followed by compound treatment for 6 days with replacement of medium containing compound on every 2 days by RT-PCR analysis; format: functional, organism-based
[3] = Selectivity index, ratio of CC50 for human HepG2.2.15 cells to IC50 for HBV infected in human HepG2.2.15 cells assessed as inhibition of viral DNA replication; format: toxicity, cell-based
[4] = Cytotoxicity against human HepG2.2.15 cells incubated for 72 hrs by CCK8 assay; format: toxicity, cell-based, HepG2 2.2.15
[5] = Inhibition of HBsAg secretion in human HepG2.2.15 cells treated for 6 days with replacement of medium containing compound on every 2 days by […]; format: functional, cell-based; details: HepG2 2.2.15
[6] = Selectivity index, ratio of CC50 for human HepG2.2.15 cells to IC50 for HBsAg secretion in human HepG2.2.15 cells; format: toxicity, cell-based; details: HepG2.2.15 cells, read-out: Ratio CC50/IC50
[7] = Selectivity index, ratio of CC50 for human HepG2.A64 cells to IC50 for HBV infected in human HepG2.A64 cells assessed as inhibition of viral DNA replication; format: toxicity, cell-based; details: read-out: Ratio CC50/IC50
Hepatitis B virus [8] = experiment: Antiviral activity against HBV infected in human HepG2.A64 cells assessed as inhibition of viral DNA replication pre-transfected cells with viral genome followed by compound treatment for 3 days by RT-PCR analysis; format: functional, organism-based; details: HepG2.A64, 72 h
[9] = Cytotoxicity against human HepG2.A64 cells incubated for 72 hrs by CCK8 assay; format: toxicity, cell-based
Hepatitis B virus [10] = experiment: Antiviral activity against HBV infected in LAM/ETV-resistant human HepG2.A64 cells assessed as inhibition of viral DNA replication at 4 uM pre-transfected cells with viral genome followed by compound treatment for 72 hrs by RT-PCR analysis relative to control; format: functional
Hepatitis B virus [11] = experiment: Antiviral activity against HBV infected in human HepG2.2.15 cells assessed as inhibition of viral DNA replication at 4 uM pre-transfected cells with viral genome followed by compound treatment for 72 hrs by RT-PCR analysis relative to control; format: functional
HEK-293T = experiment: Effect on NF-kappaB/Renilla luciferase expression in HEK293T cells at 0.4 to 10 uM incubated for 48 hrs by Dual-luciferase reporter gene assay; format: functional, cell-based; details: Homo sapiens, dose 0.4-10 µM
[12] = target: T1, Toll-like receptor 7 (Homo sapiens) (UniProt Q9NYK1); experiment: Agonist activity at human TLR7 expressed in HEK293T cells co-transfected with NF-kappaB/Renilla luciferase incubated for 48 hrs by Dual-luciferase reporter gene assay; format: cell-based; details: filed as agonist, dose 0.4-10 µM
T1 sequence (whole entry): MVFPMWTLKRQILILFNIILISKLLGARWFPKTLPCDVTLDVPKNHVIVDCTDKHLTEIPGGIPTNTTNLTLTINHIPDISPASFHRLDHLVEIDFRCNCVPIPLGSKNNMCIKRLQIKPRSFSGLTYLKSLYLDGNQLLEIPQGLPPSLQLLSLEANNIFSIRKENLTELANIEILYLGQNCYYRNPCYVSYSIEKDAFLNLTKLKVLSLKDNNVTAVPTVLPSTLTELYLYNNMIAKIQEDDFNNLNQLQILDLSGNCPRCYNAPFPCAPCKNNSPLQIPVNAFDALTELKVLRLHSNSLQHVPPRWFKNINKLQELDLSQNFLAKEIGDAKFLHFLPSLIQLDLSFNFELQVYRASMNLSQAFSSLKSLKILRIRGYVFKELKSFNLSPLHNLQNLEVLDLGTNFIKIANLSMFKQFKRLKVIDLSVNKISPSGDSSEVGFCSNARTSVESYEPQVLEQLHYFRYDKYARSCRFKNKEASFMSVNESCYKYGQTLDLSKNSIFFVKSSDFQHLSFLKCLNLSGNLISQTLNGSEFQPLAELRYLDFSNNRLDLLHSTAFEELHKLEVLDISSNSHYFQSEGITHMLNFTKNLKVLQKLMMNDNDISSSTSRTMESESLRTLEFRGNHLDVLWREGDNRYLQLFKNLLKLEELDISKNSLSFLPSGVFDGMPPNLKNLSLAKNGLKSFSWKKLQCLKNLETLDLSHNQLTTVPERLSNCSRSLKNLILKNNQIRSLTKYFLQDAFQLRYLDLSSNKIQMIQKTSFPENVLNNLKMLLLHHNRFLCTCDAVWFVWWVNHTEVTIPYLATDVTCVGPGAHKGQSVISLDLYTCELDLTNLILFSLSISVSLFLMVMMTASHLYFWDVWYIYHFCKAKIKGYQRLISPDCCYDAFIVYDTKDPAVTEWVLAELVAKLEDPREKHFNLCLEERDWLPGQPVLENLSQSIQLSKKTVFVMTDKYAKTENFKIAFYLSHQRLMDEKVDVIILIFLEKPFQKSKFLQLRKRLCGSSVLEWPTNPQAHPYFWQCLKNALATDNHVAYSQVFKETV

PBMC [13] = experiment: Induction of IL-2 production in human PBMC cells incubated for 24 hrs by ELISA; format: functional, cell-based; details: dose 0.4-10 µM
PBMC [14] = experiment: Induction of TNF-alpha production in human PBMC cells incubated for 24 hrs by ELISA; format: functional, cell-based; details: dose 0.4-10 µM
PBMC [15] = experiment: Induction of IFN-alpha production in human PBMC cells incubated for 24 hrs by ELISA; format: functional, cell-based; details: dose 0.4-10 µM
Toll-like receptor 7 = target: T2, Toll-like receptor 7 (Homo sapiens, UniProt Q9NYK1); experiment: Binding affinity to recombinant human TLR7 assessed as dissociation constant by SPR analysis
T2 sequence (Q9NYK1 whole entry): T1 sequence (whole entry)

[16] = AUClast in Sprague-Dawley rat at 10 mg/kg, IG measured for 12 hrs by UPLC-MS/MS analysis; format: ADME, organism-based; details: in vivo, po
[17] = Cmax in Sprague-Dawley rat at 10 mg/kg, IG measured for 12 hrs by UPLC-MS/MS analysis; format: ADME, organism-based; details: in vivo, po
[18] = Tmax in Sprague-Dawley rat at 10 mg/kg, IG measured for 12 hrs by UPLC-MS/MS analysis; format: ADME, organism-based; details: in vivo, po
[19] = Half life in Sprague-Dawley rat at 10 mg/kg, IG measured for 12 hrs by UPLC-MS/MS analysis; format: ADME, organism-based; details: in vivo, po

**Q.** For O=C(Cc1csc(COc2ccccc2F)n1)N1CCc2ccccc21, which inhibition at 4 µM (Hepatitis B virus [1]) is on record?
**A.** 69.2%

**Q.** What about the pIC50 (Hepatitis B virus [2]) of the same compound?
**A.** 6.89

**Q.** And the “Ratio CC50/IC50” value [3]?
**A.** > 384.62

**Q.** What about the selectivity ratio ([3]; HepG2.2.15 cells, read-out: Ratio CC50/IC50) of the same compound?
**A.** > 384

**Q.** And the CC50 at 72 h [4]?
**A.** > 50 µM

**Q.** And the pIC50 [5]?
**A.** 4.59

**Q.** What about the selectivity ratio [6] of the same compound?
**A.** > 1.93

**Q.** And the selectivity ratio [7]?
**A.** > 55.6

**Q.** What about the pIC50 (Hepatitis B virus [8]) of the same compound?
**A.** 6.44

**Q.** What about the CC50 at 72 h [9] of the same compound?
**A.** > 20 µM

**Q.** What about the inhibition at 4 µM (Hepatitis B virus [10]) of the same compound?
**A.** 74.2%

**Q.** And the inhibition at 4 µM (Hepatitis B virus [11])?
**A.** 71.7%

**Q.** And the Activity (HEK-293T)?
**A.** Active

**Q.** What about the Activity [12] of the same compound?
**A.** Dose-Dependent Effect

**Q.** And the Activity (PBMC [13])?
**A.** Dose-Dependent Effect

**Q.** What about the Activity (PBMC [14]) of the same compound?
**A.** Dose-Dependent Effect

**Q.** And the Activity (PBMC [15])?
**A.** Dose-Dependent Effect

**Q.** What about the pKd (Toll-like receptor 7) of the same compound?
**A.** 5.15

**Q.** What about the AUC(0-t) at 12 h [16] of the same compound?
**A.** 252 ng·h/mL

**Q.** What about the Cmax [17] of the same compound?
**A.** 66 ng/mL

**Q.** What about the Tmax [18] of the same compound?
**A.** 2 h

**Q.** And the half-life [19]?
**A.** 2 h
